Test results reported in PMC12467246, “Characterization of the Anticholinesterase and Antioxidant Properties of Phytochemicals from Moringa oleifera as a Potential Treatment for Alzheimer’s Disease” (Biomedicines, 2025).
Like-named read-outs stand apart in the source and are kept apart here.

What was measured:
[1] = Nitric oxide (NO) radical-scavenging assay; conditions: sodium nitroprusside, 2.5 h 25 °C, Griess reagent, 540 nm
[2] = DPPH free radical-scavenging assay; conditions: 37 °C, 40 min, 517 nm
[3] = biological target: human acetylcholinesterase (hAChE) (Homo sapiens, UniProt P22303); test: biochemical
Chain of human acetylcholinesterase (hAChE) (P22303 32-614): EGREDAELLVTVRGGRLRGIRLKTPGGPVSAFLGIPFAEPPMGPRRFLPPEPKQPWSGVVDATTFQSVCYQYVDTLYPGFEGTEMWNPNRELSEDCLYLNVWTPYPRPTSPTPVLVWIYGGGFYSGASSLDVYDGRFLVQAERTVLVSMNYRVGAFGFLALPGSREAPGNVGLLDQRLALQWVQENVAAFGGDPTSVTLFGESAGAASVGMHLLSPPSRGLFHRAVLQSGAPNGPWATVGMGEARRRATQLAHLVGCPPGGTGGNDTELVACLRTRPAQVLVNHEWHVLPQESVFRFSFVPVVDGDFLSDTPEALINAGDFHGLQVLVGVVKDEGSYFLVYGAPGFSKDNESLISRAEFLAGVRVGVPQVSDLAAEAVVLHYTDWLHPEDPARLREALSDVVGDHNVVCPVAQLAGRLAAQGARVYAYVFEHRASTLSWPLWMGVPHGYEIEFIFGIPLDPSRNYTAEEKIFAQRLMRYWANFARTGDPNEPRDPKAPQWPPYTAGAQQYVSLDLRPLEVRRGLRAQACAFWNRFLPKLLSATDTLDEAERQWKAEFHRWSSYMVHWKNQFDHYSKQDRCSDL

[4] = ABTS radical-scavenging assay; conditions: 5 min in the dark, 750 nm
[5] = Hydroxyl radical-scavenging assay; conditions: Fenton reaction, 45 min 37 °C, 532 nm
[6] = Ferric reducing antioxidant power (FRAP) assay; conditions: 700 nm
[7] = biological target: T1, human butyrylcholinesterase (hBuChE) (Homo sapiens, UniProt P06276); test: biochemical
T1 construct: purchased Sigma B4186
T1 sequence (P06276 29-602): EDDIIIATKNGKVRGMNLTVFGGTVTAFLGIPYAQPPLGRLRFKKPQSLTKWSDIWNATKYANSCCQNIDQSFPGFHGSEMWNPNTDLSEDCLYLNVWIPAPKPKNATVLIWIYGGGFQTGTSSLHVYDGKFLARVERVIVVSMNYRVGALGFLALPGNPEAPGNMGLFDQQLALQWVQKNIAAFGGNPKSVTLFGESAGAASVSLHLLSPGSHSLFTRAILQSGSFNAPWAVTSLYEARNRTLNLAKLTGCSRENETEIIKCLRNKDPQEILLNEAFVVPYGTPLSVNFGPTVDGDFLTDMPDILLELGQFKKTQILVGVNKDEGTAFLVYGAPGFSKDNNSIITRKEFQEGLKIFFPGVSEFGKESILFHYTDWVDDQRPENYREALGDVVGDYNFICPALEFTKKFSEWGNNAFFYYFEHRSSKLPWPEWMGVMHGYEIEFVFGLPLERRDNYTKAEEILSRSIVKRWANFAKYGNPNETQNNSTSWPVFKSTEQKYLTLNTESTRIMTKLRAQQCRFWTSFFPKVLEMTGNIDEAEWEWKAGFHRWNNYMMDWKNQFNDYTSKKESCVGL

[8] = Lipid peroxidation inhibition (LPI) assay; design: species or system bovine; conditions: sodium nitroprusside as pro-oxidant, 37 °C 2 h, MDA at 532 nm
[9] = biological target: T2, butyrylcholinesterase from horse (equine) serum (esBuChE) (Equus caballus, UniProt P81908); test: biochemical
T2 construct: butyrylcholinesterase from horse (equine) serum (esBuChE); purchased Sigma C7512; host or cells: horse serum
T2 sequence (P81908 whole entry): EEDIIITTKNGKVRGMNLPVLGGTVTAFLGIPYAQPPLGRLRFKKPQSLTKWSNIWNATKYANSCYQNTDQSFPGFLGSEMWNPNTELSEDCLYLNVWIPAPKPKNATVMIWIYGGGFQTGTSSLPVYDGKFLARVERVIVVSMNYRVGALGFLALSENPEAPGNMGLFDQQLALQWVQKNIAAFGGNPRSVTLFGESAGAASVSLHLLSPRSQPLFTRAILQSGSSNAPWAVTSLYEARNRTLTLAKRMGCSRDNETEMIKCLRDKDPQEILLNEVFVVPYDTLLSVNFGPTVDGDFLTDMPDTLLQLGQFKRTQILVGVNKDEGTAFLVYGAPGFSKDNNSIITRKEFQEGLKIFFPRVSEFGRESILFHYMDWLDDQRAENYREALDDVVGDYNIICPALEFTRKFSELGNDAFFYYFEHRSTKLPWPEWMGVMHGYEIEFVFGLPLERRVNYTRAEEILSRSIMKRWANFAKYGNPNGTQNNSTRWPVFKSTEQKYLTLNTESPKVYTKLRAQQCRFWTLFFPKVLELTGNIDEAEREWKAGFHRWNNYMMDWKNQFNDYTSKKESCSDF

[10] = tested on: hAChE; design: method as in PMID 32746727; conditions: ref [59]; read-out: IC50 against hAChE; cited from earlier work
[11] = tested on: AChE; conditions: ref [55],[56],[57]; cited from earlier work
[12] = tested on: BuChE; conditions: ref [55],[56],[57]; cited from earlier work
[13] = ref [62]; read-out: IC50 values, panel of antioxidant assays; cited from earlier work
[14] = tested on: BuChE; conditions: rat brain homogenates, in vitro; ref [62]; cited from earlier work
[15] = tested on: AChE; conditions: rat brain homogenates, in vitro; ref [62]; cited from earlier work

Row | Compound | EC50 [1] | EC50 [2] | IC50 ([3]; read-out: Enzyme IC50 hAChE) | EC50 [4] | EC50 [5] | EC50 [6] | EC50 [8] | IC50 [7] | IC50 [9] | further results
1 | O=C(C=Cc1ccc(O)c(O)c1)OC1C(O)CC(O)(C(=O)O)CC1O (stereo not drawn) [4-O-caffeoylquinic acid] | 125 ± 30 µM | 431 ± 28 µM | 782 ± 106 µM | 382 ± 44 µM | 120 ± 30 µM | 1.29 ± 0.045 mM | 207 ± 63 µM |  |  | IC50 ([7]; read-out: Enzyme IC50 hBuChE): 770 ± 116 µM; IC50 ([9]; read-out: Enzyme IC50 esBuChE): 903 ± 139 µM
2 | O=C(/C=C/c1ccc(O)c(O)c1)O[C@@H]1C[C@](O)(C(=O)O)C[C@@H](O)[C@H]1O [Chlorogenic acid] |  |  | > 1000 µM |  |  |  |  |  |  | IC50 [10]: 410 µM; IC50 ([7]; read-out: Enzyme IC50 hBuChE): > 1000 µM; IC50 ([9]; read-out: Enzyme IC50 esBuChE): > 1000 µM
3 | CCN(CC)C(C)CN1c2ccccc2Sc2ccccc21 (stereo not drawn) [Ethopropazine, reference compound] |  |  |  |  |  |  |  | 13.8 ± 0.8 µM | 0.01 µM | 
4 | O=C(O)c1cc(O)c(O)c(O)c1 [Gallic acid, reference compound] | 972 ± 107 µM | 86 ± 15 µM |  | 53 ± 15 µM | 80 ± 23 µM | 1.24 ± 0.049 mM | 372 ± 33 µM |  |  | 
5 | O=C1O[C@H]([C@@H](O)CO)C(O)=C1O [L-Ascorbic acid, L-ascorbic acid, reference compound] | 720 ± 127 µM |  |  | 526 ± 110 µM |  |  | 182 ± 24 µM |  |  | 
6 | O=c1c(O[C@@H]2O[C@H](CO)[C@@H](O)[C@H](O)[C@H]2O)c(-c2ccc(O)c(O)c2)oc2cc(O)cc(O)c12 [Quercetin 3-β-D-glucoside, quercetin 3-β-D-glucoside] | 261 ± 77 µM | 224 ± 27 µM | 971 ± 157 µM | 436 ± 32 µM | 55 ± 12 µM | 1.78 ± 0.107 mM | 673 ± 165 µM | 931 ± 49 µM | > 1000 µM | 
8 | C[C@@H]1O[C@@H](OC[C@H]2O[C@@H](Oc3c(-c4ccc(O)c(O)c4)oc4cc(O)cc(O)c4c3=O)[C@H](O)[C@@H](O)[C@@H]2O)[C@H](O)[C@H](O)[C@H]1O [Rutin, quercetin-3-rutinoside] | 383 ± 87 µM | 305 ± 55 µM |  | 1720 ± 206 µM | 90 ± 21 µM | 1.94 ± 0.131 mM | 26 ± 3 µM | 761 ± 106 µM | > 1000 µM | IC50 [13]: 184 to 938 µM; IC50 [14]: 288 µM; IC50 [3]: > 1000 µM; IC50 [15]: 219 µM
9 | Cc1c(C)c2c(c(C)c1O)CC[C@@](C)(CCC[C@H](C)CCC[C@H](C)CCCC(C)C)O2 [α-Tocopherol, α-tocopherol, reference compound] | 368 ± 34 µM | 369 ± 34 µM |  | 414 ± 22 µM | 53 ± 15 µM |  |  |  |  | 
